The results in this text go back to PubChem BioAssay (NCI).

Values joined by “and” are separate entries in the source; they are usually repeats but may differ in a detail not shown here. Equal values may be shown once.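 A five-concentration, 48-hour dose response in 96-well plates underlies each endpoint, interpolated linearly between surrounding concentrations. GI50 is the concentration that inhibits growth by half. The concentration for full growth arrest is given as TGI.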

Some test systems named below: CAKI-1 renal; CCRF-CEM leukemia; HCT-15 colon; HOP-62 NSCLC; HOP-92 NSCLC; K-562 leukemia; OVCAR-4 ovarian; SK-MEL-2 melanoma; SN12C renal; U251 CNS.
Assay in all cases: DTP human tumour cell line panel, 48 h

Usually GI50 stands for the concentration that inhibits growth by half. Broadly, the TGI is the concentration giving total growth inhibition. A high value points to lower sensitivity of the cells. On to `Cc1cc(O)c2c(c1)C(=O)C=CC2=O`, for which the GI50 with CAKI-1 renal is 5.57 µM and 2.21 µM; in the assay with HCT-15 colon it was 7.78 µM and 3.53 µM; in the assay on HOP-92 NSCLC, 2.33 µM and 2.51 µM; in the assay with K-562 leukemia, 0.322 µM and 1.25 µM; in the assay on OVCAR-4 ovarian, 14.5 µM and 6.75 µM; in the assay on U251 CNS it was 14.2 µM and 5.29 µM. Besides, the TGI was 13 µM and 6.47 µM with CAKI-1 renal; 0.564 µM and 1.19 µM in the assay with CCRF-CEM leukemia; 24.9 µM and 9.83 µM in the assay on HCT-15 colon; 44.7 µM and 34.2 µM in the assay with HOP-62 NSCLC; 5.15 µM and 7.69 µM with HOP-92 NSCLC; 28.8 µM and 19.5 µM in the assay on OVCAR-4 ovarian. In addition, the TGI was 36.8 µM and 44.3 µM in the assay on SK-MEL-2 melanoma; 21.9 µM and 28.6 µM with SN12C renal; 33.7 µM and 23.4 µM in the assay with U251 CNS.
In the case of `O=C1NC(=N[C@@H](CO)c2ccccc2)S/C1=C\c1ccc2ncccc2c1`, the GI50 in the assay on CAKI-1 renal was 3.06 µM; with CCRF-CEM leukemia it was 5.86 µM; in the assay on HCT-15 colon, 6.19 µM; in the assay on HOP-62 NSCLC, 12.7 µM; in the assay with HOP-92 NSCLC it was 11.1 µM; with K-562 leukemia it was 9.04 µM. Also, the GI50 with OVCAR-4 ovarian is 12.5 µM; in the assay with SK-MEL-2 melanoma, 4.73 µM; in the assay with SN12C renal, 8.1 µM; in the assay on U251 CNS, 11 µM. Also, the concentration for total growth inhibition (TGI) is greater than 25 µM with CAKI-1 renal; 21.2 µM in the assay on CCRF-CEM leukemia; greater than 25 µM in the assay with HCT-15 colon; greater than 25 µM in the assay with HOP-62 NSCLC; greater than 25 µM with HOP-92 NSCLC; greater than 25 µM in the assay with K-562 leukemia. For the same compound, the TGI in the assay on OVCAR-4 ovarian is greater than 25 µM; with SK-MEL-2 melanoma, 12.9 µM; in the assay with SN12C renal, greater than 25 µM; in the assay on U251 CNS it was greater than 25 µM.
As for `O=C(OCc1ccc2c(Br)cc(Br)c(O)c2n1)c1cc2ccccc2[nH]1`, the GI50 with CAKI-1 renal is 0.505 µM; with CCRF-CEM leukemia, 0.293 µM; in the assay with HCT-15 colon it was 0.314 µM; in the assay with HOP-62 NSCLC, 1.34 µM; with HOP-92 NSCLC, 0.548 µM; in the assay with K-562 leukemia, 0.398 µM. Further, the GI50 with OVCAR-4 ovarian was 0.959 µM; in the assay on SK-MEL-2 melanoma, 1.48 µM; in the assay with SN12C renal it was 0.839 µM; with U251 CNS, 1.4 µM. Also, the TGI is 1.86 µM with CAKI-1 renal; 2.03 µM in the assay on CCRF-CEM leukemia; 1.03 µM in the assay with HCT-15 colon; 3.47 µM in the assay on HOP-62 NSCLC; 2.15 µM in the assay with HOP-92 NSCLC; greater than 40 µM in the assay with K-562 leukemia. The TGI in the assay on OVCAR-4 ovarian was 2.31 µM; in the assay with SK-MEL-2 melanoma, 3.2 µM; with SN12C renal, 2.18 µM; in the assay with U251 CNS it was 2.91 µM.
Turning to `OC1(c2ccc(Cl)c(C(F)(F)F)c2)CCN(CCCC(c2ccc(F)cc2)c2ccc(F)cc2)CC1`, the GI50 with CAKI-1 renal is 0.922 µM; in the assay on CCRF-CEM leukemia it was 1.04 µM; in the assay on HCT-15 colon, 0.888 µM; in the assay on HOP-62 NSCLC it was 0.945 µM; in the assay with HOP-92 NSCLC, 0.448 µM; in the assay with K-562 leukemia it was 0.781 µM. In addition, the GI50 in the assay with OVCAR-4 ovarian is 0.804 µM; in the assay on SK-MEL-2 melanoma, 0.955 µM; in the assay with SN12C renal, 0.831 µM; in the assay with U251 CNS, 0.784 µM. The TGI was determined as 1.9 µM with CAKI-1 renal; 2.63 µM with CCRF-CEM leukemia; 1.75 µM with HCT-15 colon; 1.7 µM in the assay on HOP-62 NSCLC; 1.17 µM in the assay on HOP-92 NSCLC; 1.75 µM in the assay with K-562 leukemia. The total growth inhibition concentration (TGI) is 1.82 µM in the assay with OVCAR-4 ovarian, 1.76 µM in the assay on SK-MEL-2 melanoma, 1.54 µM in the assay with SN12C renal and 1.45 µM with U251 CNS.
As to `COC(=O)C1C(C(=O)OC)C2C(=O)C3C(C(=O)OC)C(C(=O)OC)C3C(=O)C12` (centres undefined), the TGI in the assay on CAKI-1 renal, in the assay on CCRF-CEM leukemia, in the assay on HOP-62 NSCLC, in the assay on HOP-92 NSCLC, with K-562 leukemia and with OVCAR-4 ovarian was greater than 100 µM in each case. Further, the concentration for total growth inhibition (TGI) with SK-MEL-2 melanoma, in the assay with SN12C renal and with U251 CNS was greater than 100 µM each time.
For the compound `Nc1nc2c(c3cnccc13)C(c1ccc(Cl)c(Cl)c1)Cc1cnccc1-2` (centres undefined), the GI50 is 0.658 µM with CAKI-1 renal; 0.388 µM in the assay on CCRF-CEM leukemia; 0.409 µM with HCT-15 colon; 0.583 µM with HOP-62 NSCLC; 1.88 µM in the assay with HOP-92 NSCLC; 0.452 µM in the assay with K-562 leukemia. Moreover, the GI50 with OVCAR-4 ovarian is 4.28 µM; in the assay on SK-MEL-2 melanoma, 0.401 µM; with SN12C renal it was 1.18 µM; in the assay with U251 CNS, 0.375 µM. The TGI in the assay with CAKI-1 renal is 13.4 µM; with CCRF-CEM leukemia, 12.6 µM; with HCT-15 colon, 11.1 µM; with HOP-62 NSCLC it was 4.99 µM; in the assay with HOP-92 NSCLC, 14.5 µM; in the assay on K-562 leukemia it was 32.8 µM. In addition, the TGI is 25.1 µM in the assay on OVCAR-4 ovarian, 1.86 µM in the assay with SK-MEL-2 melanoma, 6.68 µM in the assay with SN12C renal and 2.6 µM in the assay on U251 CNS.
Consider `CC1=N/C(=C\c2ccc(/C=C3/N=C(C)OC3=O)cc2)C(=O)O1`, for which the total growth inhibition concentration (TGI) in the assay on CAKI-1 renal, in the assay on CCRF-CEM leukemia, with HCT-15 colon, in the assay on HOP-62 NSCLC, with HOP-92 NSCLC and with K-562 leukemia was greater than 100 µM each time. Also, the TGI in the assay on OVCAR-4 ovarian, in the assay with SK-MEL-2 melanoma, in the assay on SN12C renal and in the assay on U251 CNS was greater than 100 µM each time.
For the compound `COC(=O)/C=C(/C(=O)OC)C1(C)c2cc(C(=O)OC)c(C(=O)OC)c(N)c2C(=N)N1c1ccccc1` (centres undefined), the TGI in the assay on CAKI-1 renal was 56.1 µM; with CCRF-CEM leukemia it was 50.4 µM; in the assay with HCT-15 colon, greater than 100 µM; in the assay with HOP-62 NSCLC it was greater than 100 µM; in the assay with HOP-92 NSCLC, 43.6 µM; with K-562 leukemia, 51.7 µM. Moreover, the values for the TGI in the assay with SK-MEL-2 melanoma, with SN12C renal and with U251 CNS were 81.4 µM, 48.4 µM and 48.9 µM, respectively.
Regarding `O=C1c2cccc(Oc3ccccc3)c2C(=O)c2cccc(Oc3ccccc3)c21`, the GI50 was greater than 100 µM in the assay on CAKI-1 renal; 7.14 µM in the assay on CCRF-CEM leukemia; greater than 100 µM with HCT-15 colon; 5.05 µM with HOP-62 NSCLC; 8.98 µM in the assay on HOP-92 NSCLC; greater than 100 µM in the assay with K-562 leukemia. Besides, the GI50 in the assay on SK-MEL-2 melanoma is 96.7 µM; with SN12C renal, greater than 100 µM; with U251 CNS, 33.3 µM. In addition, the concentration for total growth inhibition (TGI) was greater than 100 µM in the assay with CAKI-1 renal; 30.3 µM in the assay with CCRF-CEM leukemia; greater than 100 µM with HCT-15 colon; greater than 100 µM in the assay on HOP-62 NSCLC; 51.2 µM with HOP-92 NSCLC; greater than 100 µM with K-562 leukemia. In addition, the TGI in the assay with SK-MEL-2 melanoma, in the assay with SN12C renal and with U251 CNS was greater than 100 µM each time.
On to `Nc1ncc(Cc2ccc3c(c2)OCO3)c(N)n1`, for which the concentration for total growth inhibition (TGI) in the assay on CAKI-1 renal, with CCRF-CEM leukemia, with HCT-15 colon, in the assay on HOP-62 NSCLC, with HOP-92 NSCLC and in the assay with K-562 leukemia was greater than 100 µM in each case. Also, the TGI in the assay with OVCAR-4 ovarian, with SN12C renal and in the assay on U251 CNS was greater than 100 µM each time.
For the compound `O=c1/c(=C/c2ccccc2[N+](=O)[O-])sc2nnc(-c3cccnc3)n12`, the total growth inhibition concentration (TGI) in the assay on CAKI-1 renal is 2.78 µM; in the assay on CCRF-CEM leukemia, greater than 100 µM; with HCT-15 colon, greater than 100 µM; in the assay on HOP-62 NSCLC, greater than 100 µM; with HOP-92 NSCLC, greater than 100 µM; with K-562 leukemia it was greater than 100 µM. The TGI in the assay on OVCAR-4 ovarian, in the assay with SK-MEL-2 melanoma and with SN12C renal was greater than 100 µM each time.
Take `CCN(CC)CCCNc1ccc(C)c2sc3ccccc3c(=O)c12`: the GI50 in the assay with CAKI-1 renal was 1.29 µM; with CCRF-CEM leukemia, 0.96 µM; with HCT-15 colon, 0.248 µM; in the assay on HOP-62 NSCLC it was 1.14 µM; in the assay on HOP-92 NSCLC, 1.96 µM; with OVCAR-4 ovarian, 2.12 µM. The values for the GI50 in the assay on SK-MEL-2 melanoma, in the assay on SN12C renal and in the assay on U251 CNS were 1.66 µM, 1.09 µM and 0.602 µM, respectively. Also, the TGI in the assay on CAKI-1 renal was 3.06 µM; in the assay on CCRF-CEM leukemia it was 2.82 µM; in the assay with HCT-15 colon it was 0.651 µM; in the assay on HOP-62 NSCLC it was 2.55 µM; with HOP-92 NSCLC, 16.2 µM; in the assay with OVCAR-4 ovarian it was 33 µM. The concentration for total growth inhibition (TGI) was determined as 3.45 µM in the assay with SK-MEL-2 melanoma, 7.51 µM in the assay with SN12C renal and 1.96 µM in the assay on U251 CNS.
Turning to `O=C1CC(c2ccccc2)Oc2ccccc21` (centres undefined), the TGI is greater than 100 µM in the assay with CAKI-1 renal; 57.4 µM in the assay on CCRF-CEM leukemia; greater than 100 µM in the assay on HCT-15 colon; greater than 100 µM in the assay with HOP-62 NSCLC; 62.8 µM in the assay with HOP-92 NSCLC; 32.6 µM with K-562 leukemia. The figures for the total growth inhibition concentration (TGI) in the assay on OVCAR-4 ovarian, with SK-MEL-2 melanoma and in the assay with U251 CNS were greater than 100 µM, 86.7 µM and greater than 100 µM, respectively.
Take `O=[N+]([O-])c1ccccc1C1SCc2nc3ccccc3n21` (centres undefined): the TGI in the assay on CAKI-1 renal, in the assay with CCRF-CEM leukemia, with HOP-62 NSCLC, in the assay on HOP-92 NSCLC, in the assay on K-562 leukemia and in the assay with OVCAR-4 ovarian was greater than 100 µM in each case. Moreover, the concentration for total growth inhibition (TGI) in the assay with SK-MEL-2 melanoma, in the assay on SN12C renal and with U251 CNS was greater than 100 µM in each case.
As to `COC(=O)C1C(=O)O[C@@H](c2ccc3c(c2)OCO3)C1C(=O)OC` (mixture of isomers), the total growth inhibition concentration (TGI) in the assay with CAKI-1 renal, in the assay on CCRF-CEM leukemia, in the assay with HCT-15 colon, in the assay with HOP-62 NSCLC, in the assay with HOP-92 NSCLC and with K-562 leukemia was greater than 100 µM each time. Further, the total growth inhibition concentration (TGI) in the assay with OVCAR-4 ovarian, in the assay on SN12C renal and in the assay on U251 CNS was greater than 100 µM throughout.
